These compounds were tested against hAChE-induced aggregation of Aβ1–40 (Homo sapiens, UniProt P22303) (assay: hAChE-induced Aβ aggregation inhibition, thioflavin T fluorescence). Conditions: 100 μM compound, 50 μM Aβ1–40, 24 h, ThT; NA = Not active.
Assay type: biochemical

Chain of hAChE-induced aggregation of Aβ1–40 (P22303 32-614): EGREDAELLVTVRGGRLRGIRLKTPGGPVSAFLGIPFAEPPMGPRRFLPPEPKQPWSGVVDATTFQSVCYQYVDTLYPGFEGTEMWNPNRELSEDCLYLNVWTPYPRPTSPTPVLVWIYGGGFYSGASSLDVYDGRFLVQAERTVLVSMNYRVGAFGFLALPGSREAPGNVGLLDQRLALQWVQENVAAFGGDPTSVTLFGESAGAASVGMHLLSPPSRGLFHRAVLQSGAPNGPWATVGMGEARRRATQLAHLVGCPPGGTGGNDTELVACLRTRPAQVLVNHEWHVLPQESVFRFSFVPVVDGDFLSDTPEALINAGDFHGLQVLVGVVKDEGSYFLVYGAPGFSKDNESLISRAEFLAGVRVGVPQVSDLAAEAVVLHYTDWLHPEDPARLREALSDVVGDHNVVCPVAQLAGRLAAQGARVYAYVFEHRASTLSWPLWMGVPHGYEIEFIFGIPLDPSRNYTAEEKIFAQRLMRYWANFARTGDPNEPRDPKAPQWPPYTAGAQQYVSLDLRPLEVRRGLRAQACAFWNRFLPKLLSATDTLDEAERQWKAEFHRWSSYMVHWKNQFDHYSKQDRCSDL

| SMILES | Inhibition of hAChE-induced aggregation of Aβ1–40 at 100 μM ± SEM |
| --- | --- |
| c1ccc(CNc2ccnc(N3CCCC3)n2)cc1 [7a, N-Benzyl-2-(pyrrolidin-1-yl)pyrimidin-4-amine] | did not provide anti-aggregation activity |
| c1ccc(CNc2ccnc(N3CCSCC3)n2)cc1 [7c, N-Benzyl-2-thiomorpholinopyrimidin-4-amine] | either weak or no anti-aggregation activity |
| c1ccc(CCNc2ccnc(N3CCSCC3)n2)cc1 [8c, N-Phenethyl-2-thiomorpholinopyrimidin-4-amine] | either weak or no anti-aggregation activity |
